Test results from ChEMBL document CHEMBL4834463, “Synthesis and fungicidal activity of novel 2-(2-alkylthio-6-phenylpyrimidin-4-yl)-1H-benzimidazoles” (Bioorg Med Chem Lett, 2021).
Converted amounts (≈) assume the structure as drawn.

What follows are compounds tested on Botrytis cinerea (assay: Antifungal activity against Botrytis cinerea assessed as inhibition of mycelia growth incubated for 48 hrs).
Assay type: functional, organism-based

SMILES | EC50 [µg/mL]
CSc1nc(-c2ccc(F)cc2)cc(-c2nc3ccccc3[nH]2)n1 | 0.95 (≈ 2.82 µM)
c1ccc(CSc2nc(-c3ccccc3)cc(-c3nc4ccccc4[nH]3)n2)cc1 | 7.02 (≈ 17.8 µM)
CCCCSc1nc(-c2ccc(OC)cc2)cc(-c2nc3ccccc3[nH]2)n1 | 2.45 (≈ 6.27 µM)
Fc1ccc(-c2cc(-c3nc4ccccc4[nH]3)nc(SCc3ccccc3)n2)cc1 | 0.14 (≈ 0.339 µM)
COc1ccc(-c2cc(-c3nc4ccccc4[nH]3)nc(SC)n2)cc1 | 0.41 (≈ 1.18 µM)
Clc1ccc(-c2cc(-c3nc4ccccc4[nH]3)nc(SCc3ccccc3)n2)cc1 | 0.2 (≈ 0.466 µM)
CSc1nc(-c2ccc(Cl)cc2)cc(-c2nc3ccccc3[nH]2)n1 | 1.15 (≈ 3.26 µM)
COc1ccc(-c2cc(-c3nc4ccccc4[nH]3)nc(SCc3ccccc3)n2)cc1 | 0.28 (≈ 0.66 µM)
CSc1nc(-c2ccccc2)cc(-c2nc3ccccc3[nH]2)n1 | 0.15 (≈ 0.471 µM)
CCCCSc1nc(-c2ccc(F)cc2)cc(-c2nc3ccccc3[nH]2)n1 | 0.16 (≈ 0.423 µM)
CCCCSc1nc(-c2ccc(Cl)cc2)cc(-c2nc3ccccc3[nH]2)n1 | 10.1 (≈ 25.6 µM)
CCCCSc1nc(-c2ccccc2)cc(-c2nc3ccccc3[nH]2)n1 | 0.34 (≈ 0.943 µM)
COC(=O)Nc1nc2ccccc2[nH]1 [CARBENDAZIM] | 0.21 (≈ 1.1 µM)

What follows are compounds tested on Sclerotinia sclerotiorum (assay: Antifungal activity against Sclerotinia sclerotiorum assessed as inhibition of mycelia growth incubated for 48 hrs).
Assay type: functional, organism-based

SMILES | EC50 [µg/mL]
CSc1nc(-c2ccc(F)cc2)cc(-c2nc3ccccc3[nH]2)n1 | 16.6 (≈ 49.5 µM)
c1ccc(CSc2nc(-c3ccccc3)cc(-c3nc4ccccc4[nH]3)n2)cc1 | 8.95 (≈ 22.7 µM)
CCCCSc1nc(-c2ccc(OC)cc2)cc(-c2nc3ccccc3[nH]2)n1 | 16.4 (≈ 41.9 µM)
Fc1ccc(-c2cc(-c3nc4ccccc4[nH]3)nc(SCc3ccccc3)n2)cc1 | 4.65 (≈ 11.3 µM)
COc1ccc(-c2cc(-c3nc4ccccc4[nH]3)nc(SC)n2)cc1 | 23.5 (≈ 67.4 µM)
Clc1ccc(-c2cc(-c3nc4ccccc4[nH]3)nc(SCc3ccccc3)n2)cc1 | 14 (≈ 32.6 µM)
CSc1nc(-c2ccc(Cl)cc2)cc(-c2nc3ccccc3[nH]2)n1 | 17.3 (≈ 49 µM)
COc1ccc(-c2cc(-c3nc4ccccc4[nH]3)nc(SCc3ccccc3)n2)cc1 | 10.2 (≈ 24 µM)
CSc1nc(-c2ccccc2)cc(-c2nc3ccccc3[nH]2)n1 | 45 (≈ 141 µM)
CCCCSc1nc(-c2ccc(F)cc2)cc(-c2nc3ccccc3[nH]2)n1 | 6.72 (≈ 17.8 µM)
CCCCSc1nc(-c2ccc(Cl)cc2)cc(-c2nc3ccccc3[nH]2)n1 | 20.6 (≈ 52.1 µM)
CCCCSc1nc(-c2ccccc2)cc(-c2nc3ccccc3[nH]2)n1 | 22.3 (≈ 61.9 µM)
COC(=O)Nc1nc2ccccc2[nH]1 [CARBENDAZIM] | 13.3 (≈ 69.7 µM)
